Results from ChEMBL document CHEMBL3217408 (Medchemcomm, 2013).
Activity calls are given as the source filed them. No cut-off for these calls is given here.

How the values were obtained:
[1] = target: T1, Transcriptional activator protein LasR (Pseudomonas aeruginosa (strain ATCC 15692 / PAO1 / 1C / PRS 101 / LMG12228)) (UniProt P25084); test: Antagonist activity at LasR in Pseudomonas aeruginosa PAO1 assessed as inhibition of biofilm formation at 0.3 to 333 uM after 20 hrs by crystal violet staining assay
T1 sequence (whole entry): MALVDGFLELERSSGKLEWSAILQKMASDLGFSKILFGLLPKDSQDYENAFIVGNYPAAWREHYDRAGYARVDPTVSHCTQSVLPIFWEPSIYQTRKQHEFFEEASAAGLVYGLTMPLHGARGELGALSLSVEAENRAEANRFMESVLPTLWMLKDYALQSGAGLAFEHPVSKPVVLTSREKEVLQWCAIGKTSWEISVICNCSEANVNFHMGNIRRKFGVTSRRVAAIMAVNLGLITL

Pseudomonas aeruginosa [2] = test: Antibacterial activity against Pseudomonas aeruginosa PAO1 assessed as inhibition of pyocyanin production at 100 uM after 20 hrs; assay type: functional; settings: PAO1, 20 h
[3] = target: T1, Transcriptional activator protein LasR (Pseudomonas aeruginosa (strain ATCC 15692 / PAO1 / 1C / PRS 101 / LMG12228)); test: Binding affinity to LasR in Pseudomonas aeruginosa PAO1 at 50 to 100 uM after 24 hrs by gel electrophoresis
Pseudomonas aeruginosa [4] = test: Growth inhibition of lasI-rhlI double mutant Pseudomonas aeruginosa PAO-JP2 harboring lasI promoter coupled to the luxCDABE box measured at >100 uM after 5 hrs; assay type: organism-based; settings: in vivo
[5] = target: T2, HTH-type quorum-sensing regulator RhlR (Pseudomonas aeruginosa (strain ATCC 15692 / PAO1 / 1C / PRS 101 / LMG12228)) (UniProt P54292); test: Antagonist activity at RhlR in lasI-rhlI double mutant Pseudomonas aeruginosa PAO-JP2 harboring lasI promoter coupled to the luxCDABE box assessed as reduction in C4-HSL induced protein measured at 25 to 200 uM after 5 hrs
T2 sequence (whole entry): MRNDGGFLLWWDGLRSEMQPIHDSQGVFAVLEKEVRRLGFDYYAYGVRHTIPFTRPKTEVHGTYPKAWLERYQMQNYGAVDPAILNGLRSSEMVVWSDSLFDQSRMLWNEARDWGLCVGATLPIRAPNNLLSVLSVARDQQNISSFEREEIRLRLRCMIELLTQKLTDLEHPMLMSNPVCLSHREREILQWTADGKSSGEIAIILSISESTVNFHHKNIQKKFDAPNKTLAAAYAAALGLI

[6] = target: T1, Transcriptional activator protein LasR (Pseudomonas aeruginosa (strain ATCC 15692 / PAO1 / 1C / PRS 101 / LMG12228)); test: Antagonist activity at LasR in Escherichia coli DH5a harboring reporter plasmid lasI-lacZ (pSC11) pJN105L plasmid assessed as inhibition of 3-oxo-C12-HSL induced protein activation by Miller assay method; settings: Escherichia coli DH5[alpha]
[7] = target: T1, Transcriptional activator protein LasR (Pseudomonas aeruginosa (strain ATCC 15692 / PAO1 / 1C / PRS 101 / LMG12228)); settings: 12 uM
Description: Antagonist activity at LasR in Pseudomonas aeruginosa PAO1 assessed as inhibition of biofilm formation at 12 uM after 20 hrs by crystal violet staining assay

[8] = target: T1, Transcriptional activator protein LasR (Pseudomonas aeruginosa (strain ATCC 15692 / PAO1 / 1C / PRS 101 / LMG12228)); settings: JP2, 50 uM
Description: Antagonist activity at LasR in lasI-rhlI double mutant Pseudomonas aeruginosa JP2 harboring lasI promoter coupled to the luxCDABE box assessed as reduction in C4-HSL induced luminescence measured at 50 uM after 5 hrs

[9] = target: T1, Transcriptional activator protein LasR (Pseudomonas aeruginosa (strain ATCC 15692 / PAO1 / 1C / PRS 101 / LMG12228)); settings: 200 uM
Description: Inhibition of LasR activation in Pseudomonas aeruginosa PAO1 harboring lasI promoter coupled to the luxCDABE luminescence system assessed as reduction in luminescence measured at 200 uM after 5 hrs

[10] = target: T1, Transcriptional activator protein LasR (Pseudomonas aeruginosa (strain ATCC 15692 / PAO1 / 1C / PRS 101 / LMG12228)); settings: JP2, 200 uM
Description: Agonist activity at LasR in lasI-rhlI double mutant Pseudomonas aeruginosa JP2 harboring lasI promoter coupled to the luxCDABE box assessed as reduction in luminescence measured at 200 uM after 5 hrs

SMILES	inhibition [1]	inhibition at 100 µM (Pseudomonas aeruginosa [2]) [%]	Activity [3]	Activity (Pseudomonas aeruginosa [4])	inhibition [5]	inhibition [6]	inhibition [7]	inhibition [8]	inhibition [9]	inhibition [10]
O=C1C=C(Br)/C(=C/Br)O1	Active	–	–	–	–	–	–	–	–	–
C[S+]([O-])CCCCN=C=S (stereo not given) [SULFORAPHANE]	–	> 70	Active	Non-toxic	Active	Dose-dependent effect	Active	Active	Active	inactive
